Data taken from patent US20240123080A1, “CYTOTOXIC COMPOUNDS AND CONJUGATES THEREOF” (Seagen Inc., priority 2022, published 2024).
pIC50: −log10 of the molar value. *1 amine or outer side, *2 acyl side, *3 side chain or, on linkers, in order; H or OH if unused. Where a SMILES comes first, the peptide text is derived from it. [ ]: non-standard residue; d: D form. The star is where a group is joined. ξ: configuration not given here. Dolaproine = CO[C@@H]([C@@H]1CCCN1)[C@@H](C)C(=O)O; Hexanoyl(6-maleimido) = O=C1C=CC(=O)N1CCCCCC(=O)*; Propanoyl(3-maleimido) = O=C1C=CC(=O)N1CCC(=O)*; Dil = CC[C@H](C)[C@H](NC)[C@@H](CC(=O)O)OC; PABC = O=C(OCc1ccc(N[*:1])cc1)[*:2]; Doe = c1ccc(C[C@H](N*)c2nccs2)cc1; X1 = C[C@@H](N*)[C@@H](O)c1ccccc1; Cit = NC(=O)NCCC[C@H](N)C(=O)O; Phe(ol) = N[C@H](CO)Cc1ccccc1; NHPhenethyl = c1ccc(CCN*)cc1; X3 = CN1C(=O)OC[C@@H]1C(=O)*; NMeV = CN[C@H](C(=O)O)C(C)C; X2 = CN(C)[C@@H](CO)C(=O)*; NMeS = CN[C@@H](CO)C(=O)O; ξαMeS = CC(N)(CO)C(=O)O

Tests used:
A2058 = test: In vitro cytotoxicity of auristatin ADCs and free drugs (CellTiter-Glo, 96 h); format: cell-based; details: for pIC50: Homo sapiens, A2058, 96 h, read-out: IC50, A2058; for IC50, A2058: ADC, 96 h
Experimental: (§1) Cancer cells were counted and plated in 40 μL complete growth media in 384-well, white-walled tissue culture treated plates (Corning). Cell plates were incubated at 37° C. and with 5% CO2 overnight to allow the cells to equilibrate. Stock solutions containing ADCs or free drugs were serially diluted in RPMI-1640+20% fetal bovine serum (FBS). 10 μL of each concentration were then added to each cell plate in duplicate. Cells were then incubated at 37° C. and with 5% CO2 for 96 hours, upon which, the cell plates were removed from the incubator and allowed to cool to room temperature for 30 minutes prior to analysis. CellTiter-Glo® luminescent assay reagent (Promega Corporation, Madison, WI) was prepared according to Promega's protocol. 10 μL of CellTiter-Glo® were added to assay plates using a Formulatrix Tempest liquid handler (Formulatrix) and the plates were protected from light for 30 minutes at room temperature. The luminescence of the samples was measured using an EnVision Multimode plate reader (Perkin Elmer, Waltham, MA). Raw data were analyzed in Graphpad Prism (San Diego, CA) using a nonlinear, 4-parameter curve fit model [Y=Bottom+(Top-Bottom)/(1+10^((LogEC50−X)*HillSlope))]. Results are reported as IC50 values, which are defined as the concentration of ADC or free drug required to reduce cell viability to 50%.

CALU1 = test: as above; format: cell-based; details: for pIC50: Homo sapiens, Calu-1, 96 h, read-out: IC50, CALU1; for IC50, CALU1: ADC, 96 h
Experimental: as §1

SKMEL28 = test: as above; format: cell-based; details: for pIC50: Homo sapiens, SK-MEL-28, 96 h, read-out: IC50, SKMEL28
Experimental: as §1

SKMEL5 = test: as above; format: cell-based; details: for pIC50: Homo sapiens, SK-MEL-5, 96 h, read-out: IC50, SKMEL5; for IC50, SKMEL5: ADC, 96 h
Experimental: as §1

[1] = LogD, miniaturized 1-octanol/pH 7.4 buffer shake flask method, LC/MS/MS; format: physicochemical
Experimental: The LogD (distribution coefficient) of the compounds was measured using a miniaturized 1-octanol/pH 7.4 buffer shake flask method followed by LC/MS/MS analysis. Values were determined by measuring the compound partitioned in the organic and buffered layers.

DEL ALCL = test: In vitro cytotoxicity, cell proliferation assay (CellTiter-Glo, 96 h); format: cell-based; details: auristatin free drug
Experimental: (§2) The cytotoxicity of free drugs and drug conjugates were measured by a cell proliferation assay employing the protocol described in Promega Corp. Technical Bulletin TB288; and Mendoza et al., 2002, Cancer Res. 62:5485-5488), the methods of which are specifically incorporated by reference herein. Briefly, an aliquot of 40 μl of cell culture containing about 400 cells in medium is deposited in each well of a 384-well, opaque-walled plate. A 10 μL aliquot of free drug or drug conjugate is added to the experimental wells and incubated for 96 h and are then equilibrated to room temperature for approximately 30 minutes whereupon a volume of CellTiter-Glo™ reagent equal to the volume of cell culture medium present in each well is added. The contents are mixed for 2 minutes on an orbital shaker to induce cell lysis and the plate is incubated at room temperature for 10 minutes to stabilize the luminescence signal for recordation.

Karpas299 NHL = test: as above; format: cell-based; details: Homo sapiens, KARPAS-299, auristatin free drug
Experimental: as §2

L540cy HL = test: as above; format: cell-based; details: auristatin free drug
Experimental: as §2

[2] = test system: DEL, Karpas299, and L540cy cell lines; test: Average cytotoxicity of DEL, Karpas299, and L540cy cell lines; format: cell-based; details: read-out: Avg IC50 Free drug
Experimental: as §2
Tolerability of an ADC comprising the compound of Example 8 of the present application was compared to tolerability of ADCs comprising the known compounds MMAE and MMAF. Without being bound by theory, the improvements in tolerability are believed to be related to reduced toxicities in the bone marrow and in the liver that are a result of the OH moieties on the compound of Example 8.

Sprague Dawley rats = test: In vivo rat safety study of non-binding (h00) ADCs, hematology and clinical chemistry; details: ADC of the Drug-Linker
Experimental: In vivo rat safety studies were done in naive female Sprague Dawley rats (Envigo). Studies had 3 animals/group/timepoint and included a vehicle control group (1×PBS pH 7.4). Animals were administered a single dose of 15 or 80 mg/kg of an h00 ADC (DAR=4) via intravenous injection. Blood was drawn at days 5 and day 8. Blood was sampled under isoflurane anesthesia via the jugular vein for periodic hematology analysis on the Sysmex XT-2000iV. At necropsy, blood was collected from the caudal vena cava for hematology and clinical chemistry panels. Clinical chemistry was analyzed on a Beckman Coulter AU680.

HCC2218 = test: In vitro cytotoxicity of auristatin ADCs and free drugs (CellTiter-Glo, 96 h); format: cell-based; details: ADC, Table 8
Experimental: as §1

SKBR3 = test: as above; format: cell-based; details: ADC, Table 8
Experimental: as §1

WM2664 = test: as above; format: cell-based; details: ADC, Table 8
Experimental: as §1

cynomolgus monkeys [3] = test: In vivo safety study of hCR011 ADCs, hematology and clinical chemistry (Example 97); set-up: species or system cynomolgus monkey; details: 3 mg/kg, four weekly i.v. doses, DAR=4
Experimental: In vivo safety studies were done in naive cynomolgus monkeys. Studies had 1 or 2 animals/group/timepoint of hCR011-MC-VC-MMAE (DAR=4) or hCR011-Example 60 (DAR=4). Animals were administered four weekly doses of 3, 5, or 10 mg/kg of ADC via intravenous (slow bolus) injection. Baseline measurements for hematology and clinical chemistry parameters were taken from blood drawn at one or two time points prior to dosing, and post-dose timepoints were collected at day 8, and also on days 15 and 29 (hematology only).

cynomolgus monkeys [4] = test: In vivo toxicology study of hCR011 ADCs at 5 mg/kg (Example 98); set-up: species or system cynomolgus monkey; details: DAR=4
Experimental: In vivo toxicology studies were done in naive cynomolgus monkeys. Studies had 2 animals/group/timepoint of hCR011-MC-VC-MMAE (DAR=4) or hCR011-Example 60 (DAR=4). Animals were administered four weekly doses of 5 mg/kg of ADC via intravenous (slow bolus) injection.

Row | Compound | logD [1] | pIC50 (DEL ALCL) | pIC50 (Karpas299 NHL) | pIC50 (L540cy HL) | Tolerated at 80 mg/kg in rats (Sprague Dawley rats) | further results
1 | CC[C@H](C)[C@@H]([C@@H](CC(=O)N1CCC[C@H]1[C@H](OC)[C@@H](C)C(=O)N[C@H](CO)Cc1ccccc1)OC)N(C)C(=O)[C@@H](NC(=O)[C@H](CO)N(C)C)C(C)C [Ex. 8 (compound 1.1)] (X2-V[Dil][Dolaproine][Phe(ol)]) | – | – | – | – | – | pIC50 (A2058): 8.70; pIC50 (CALU1): 8.30; pIC50 (SKMEL28): 8.40; pIC50 (SKMEL5): 8.70
2 | CC[C@H](C)[C@@H]([C@@H](CC(=O)N1CCC[C@H]1[C@H](OC)[C@@H](C)C(=O)N[C@H](CO)Cc1ccccc1)OC)N(C)C(=O)[C@@H](NC(=O)[C@H](CO)N(C)C)C(C)C [Example 8] (X2-V[Dil][Dolaproine][Phe(ol)]) | 1.6 | 9.15 | 8.85 | 8.18 | – | pIC50 [2]: 8.54
3 | CC[C@H](C)[C@@H]([C@@H](CC(=O)N1CCC[C@H]1[C@H](OC)[C@@H](C)C(=O)N[C@H](C)[C@@H](O)c1ccccc1)OC)N(C)C(=O)[C@@H](NC(=O)C[C@@H](N)CO)C(C)C [Example 32] | 0.3 | 7.19 | 7.25 | 6.04 | – | –
4 | CC[C@H](C)[C@@H]([C@@H](CC(=O)N1CCC[C@H]1[C@H](OC)[C@@H](C)C(=O)N[C@H](C)[C@@H](O)c1ccccc1)OC)N(C)C(=O)[C@@H](NC(=O)C(C)(N)CO)C(C)C (stereo partly drawn) [Example 33] (H-[ξαMeS]V[Dil][Dolaproine]-X1) | 3.2 | 8.74 | 8.77 | 8.19 | – | –
5 | CC[C@H](C)[C@@H]([C@@H](CC(=O)N1CCC[C@H]1[C@H](OC)[C@@H](C)C(=O)N[C@H](CO)Cc1ccccc1)OC)N(C)C(=O)[C@@H](NC(=O)[C@H]1COC(=O)N1C)C(C)C [Example 45] (X3-V[Dil][Dolaproine][Phe(ol)]) | 1.5 | 8.07 | 7.39 | 6.57 | – | –
6 | CC[C@H](C)[C@@H]([C@@H](CC(=O)N1CCC[C@H]1[C@H](OC)[C@@H](C)C(=O)N[C@H](CO)Cc1ccccc1)OC)N(C)C(=O)[C@@H](NC(=O)[C@H](CO)N(C)C(=O)OCc1ccc(NC(=O)[C@H](CCCNC(N)=O)NC(=O)[C@@H](NC(=O)CCCCCN2C(=O)C=CC2=O)C(C)C)cc1)C(C)C [Example 61] ({Hexanoyl(6-maleimido)}-V[Cit][PABC][NMeS]V[Dil][Dolaproine][Phe(ol)]) | – | – | – | – | Yes | –
7 | CC[C@H](C)[C@@H]([C@@H](CC(=O)N1CCC[C@H]1[C@H](OC)[C@@H](C)C(=O)NCCc1ccccc1)OC)N(C)C(=O)[C@@H](NC(=O)[C@H](CO)N(C)C(=O)OCc1ccc(NC(=O)[C@H](CCC(=O)O)NC(=O)[C@H](C)NC(=O)[C@@H](CC(C)C)NC(=O)CCN2C(=O)C=CC2=O)cc1)C(C)C [Example 78] ({Propanoyl(3-maleimido)}-[dL]AE[PABC][NMeS]V[Dil][Dolaproine]-NHPhenethyl) | – | – | – | – | Yes | –
8 | CC[C@H](C)[C@@H]([C@@H](CC(=O)N1CCC[C@H]1[C@H](OC)[C@@H](C)C(=O)N[C@@H](Cc1ccccc1)c1nccs1)OC)N(C)C(=O)[C@@H](NC(=O)[C@H](CO)N(C)C(=O)OCc1ccc(NC(=O)[C@H](CCC(=O)O)NC(=O)[C@H](C)NC(=O)[C@@H](CC(C)C)NC(=O)CCN2C(=O)C=CC2=O)cc1)C(C)C [Example 79] ({Propanoyl(3-maleimido)}-[dL]AE[PABC][NMeS]V[Dil][Dolaproine]-Doe) | – | – | – | – | No | –
9 | CC[C@H](C)[C@@H]([C@@H](CC(=O)N1CCC[C@H]1[C@H](OC)[C@@H](C)C(=O)N[C@@H](Cc1ccccc1)c1nccs1)OC)N(C)C(=O)[C@@H](NC(=O)[C@H](CO)N(C)C(=O)OCc1ccc(NC(=O)[C@H](CCC(=O)O)NC(=O)[C@H](C)NC(=O)[C@@H](CC(C)C)NC(=O)CCN2C(=O)C=CC2=O)cc1)[C@@H](C)CC [Example 80] ({Propanoyl(3-maleimido)}-[dL]AE[PABC][NMeS]I[Dil][Dolaproine]-Doe) | – | – | – | – | Yes | –
10 | CC[C@H](C)[C@@H]([C@@H](CC(=O)N1CCC[C@H]1[C@H](OC)[C@@H](C)C(=O)N[C@H](C)[C@@H](O)c1ccccc1)OC)N(C)C(=O)[C@@H](NC(=O)[C@@H](NC)C(C)C)C(C)C [MMAE, monomethyl auristatin E, reference compound] (H-[NMeV]V[Dil][Dolaproine]-X1) | 1.9 | 10.30 | 10.00 | 10.00 | – | pIC50 [2]: 9.70; pIC50 (A2058): 9.52; pIC50 (CALU1): 9.22; pIC50 (SKMEL28): 9.40; pIC50 (SKMEL5): 9.70
11 | CC[C@H](C)[C@@H]([C@@H](CC(=O)N1CCC[C@H]1[C@H](OC)[C@@H](C)C(=O)N[C@@H](Cc1ccccc1)C(=O)O)OC)N(C)C(=O)[C@@H](NC(=O)[C@@H](NC)C(C)C)C(C)C [MMAF, monomethyl auristatin F, reference compound] (H-[NMeV]V[Dil][Dolaproine]F-OH) | 0.03 | 7.36 | 7.39 | 7.33 | – | pIC50 [2]: 7.36
12 | hCR011-MC-VC-MMAE: "conjugate hCR011-MC-VC-MMAE" "(DAR=4)" [reference compound] | – | – | – | – | – | IC50, A2058 (A2058; Table 8): 24300 ng/mL; IC50, A2058 (A2058; Table 9): 11118 ng/mL; IC50, CALU1 (CALU1; Table 8): >30K; IC50, CALU1 (CALU1; Table 9): 14251 ng/mL; IC50, HCC2218 (HCC2218): >30K; IC50, SKBR3 (SKBR3): 2690 ng/mL; IC50, SKMEL28 (SKMEL28; ADC, Table 9, 96 h): 14020 ng/mL; IC50, SKMEL5 (SKMEL5; Table 8): 916 ng/mL; IC50, SKMEL5 (SKMEL5; Table 9): 668 ng/mL; IC50, WM2664 (WM2664): 4468 ng/mL; neutrophil counts post-administration, FIG. 17 (cynomolgus monkeys [3]): a decrease relative to baseline on days 8, 15, and 29; neutrophil counts post-dose on Day 8, FIG. 21 (cynomolgus monkeys [4]): a decrease relative to baseline
